The values below come from US20260139017A1, “COMPOSITIONS AND METHODS USING REELIN IN ALZHEIMER'S DISEASE” (The General Hospital Corporation, priority 2022, published 2026).

Entries after “also recorded” stand apart in the source; their conditions may differ.

The subject of assay [1] is pDAB1 (Tyr232). Briefly: HRECs treated 5 minutes with HEK 293T-derived mini-RELN media, pDAB1 western blot. Type of assay: cell-based, human. Particulars: HEK 293T-derived media 1:1, 1:4, 1:14, 5 minutes. The procedure: The effect of in vitro treatment with RELN or miniRELN protein was also evaluated. HRECs were cultured in EBM-2 media enriched with EGM-2 Single Quots (Lonza) at 37° C. and 5% CO2 and experimentally tested at passage 7. 24 h prior experiment, cells were plated on a 6-well plate at 500,000 cells/mL. Two hours before the experiment, the cells were washed with PBS to remove residual growth media and then incubated with a starving media including EBM-2, 1% GlutaMax+0,2% Normicin. Treatments was conducted using media derived from HEK 293T cells transiently transfected for 24 h with different mini-RELN constructs in the presence of Lipofectamine 2000. […] Total protein levels were quantified via BCA assay. […] We detected pDAB1 (Tyr232; 1:1000, rabbit, #3325 Cell signaling), and Beta actin (1:5000, mouse, #66009-1-Ig, Proteintech. Antibodies were diluted using Intercept® (TBS) Blocking Buffer and incubated overnight at 4C under gentle shaking. Prior secondary antibody incubation, membranes were washes 2 times using TBS-T for 10 minutes. As secondary antibodies we used IR Dye 800n CW Goat-anti-Rabbit (925-32211, Licor) and IR Dye 680 CW Goat-anti-Mouse (925-68070, Licor) both diluted 1:10000 in blocking buffer for 1 h at room temperature under gentle shaking. Membranes were washed three times with TBS-T prior IR detection using Odyssey imager. […]
On the technique in general: A western blot detects proteins with antibodies after separation by electrophoresis.

Assay [2] concerns human retinal endothelial cells. Put plainly: GFP mRNA cargo uptake with CTR peptide in retinal endothelial cells. Type of assay: cell-based. Particulars: 5 μg mRNA mixed with peptide, 24 hours. The procedure: To evaluate this, HMRECs were cultured in a 24 well plate until 80% confluency complete endothelial growth media 2 (EGM-2, Lonza, Switzerland). For the treatments, 5 μg of mRNA were added to all the formulations. We prepared mRNA/peptide conjugates by mixing each amount of peptide ([…]) (SEQ ID NO:59) and mRNA prior to dilution in EGM-2. HMRECs were cultured with treatment media for 24 hours followed by fluorescence measurements in a microplate reader Synergy H1 (Biotek, VT) upon exciting at 482 nm and recording emission at 520 nm.

Assay [3] has as its target T1, Aβ42 (Homo sapiens, UniProt P05067).
T1 construct: SensoLyte ThT O-Amyloid (1-42) Aggregation kit
Put plainly: Thioflavin T (ThT) Aβ aggregation assay. Type of assay: biochemical. As to conditions: Aβ42 55 μM, 10 μM peptide, vs Aβ alone. The procedure:
Therefore, the ThT assay can be used to quantify AB aggregation using previously developed methods (40).
We incubated CTR-RELN with Aβ and monitored aggregation using a ThioflavinT fluorescence assay normalized to the maximum ThT emission of Aβ only. We also assayed Aβ in the presence of morin, a known inhibitor (41), as a […]. Long and short WT and H3447R RELN CTR peptides were included to better understand the potential role of the H3447R mutation in amyloid pathology (FIGS. 14 and 15. Negative controls included long and short RELN CTR peptides with neutrally charged AAs (histidines) in place of basic AAs in the alpha- and beta-GAG binding sites.
A Thioflavin T (ThT) assay was also performed using synthetic Reelin peptides to assess the differential effects of these proteins on Aβ42 aggregation in vitro using Thioflavin T (SensoLyte ThT O-Amyloid (1-42) Aggregation kit, catalog no. ΔS-72214). Aβ42 was added to a final concentration of 55 μM in solutions of 10 μM of Reelin peptide variants in a transparent, no-binding 96-well plate. Samples were then mixed with 2 mM Thioflavin T dye and fluorescence was read at excitation wavelength/emission wavelength (Ex/Em)=440/484 nm at intermittent time intervals over 2 h. The plate was kept at 37° C. with 15 s shaking between reads. […] In general, it appears that the RELN Cterm domain is highly unstructured. […] If the mini-RELN includes the C-term domain only without a receptor binding domain then the protection will not involve signaling, but will still involve direct interactions with tau. If the mini-RELN includes the C-term domain and the receptor binding domain, it will have at least two protective mechanisms, namely RELN signaling and direct interactions with tau.

Assay [4] has as its target T2, VLDLr (Homo sapiens, UniProt P98155).
T2 construct: purchased R&D 8444-VL
Put plainly: ELISA cell-free binding of RELN variants to VLDLr. The procedure:
(§1) Enzyme-linked immunosorbent assay (ELISA) was used to quantify changes in binding of RELN variants (media-derived full-length or CTR-RELN) to either VLDLr or ApoEr2 following an optimized version of a previously published protocol (6). Briefly, ELISA strips (DY008, R&D Systems) were coated with one ng/μL (100 μL/well) of VLDLr (8444-VL, R&D) or ApoEr2 (TP320903, OnGene) receptors diluted in 25 mM Tris HCl, 140 mM NaCl, […], two mM CaCl2), pH 7.4 (TBS-C buffer). After 18 h at four ° C. incubation, plates were blocked one h with three % BSA (22070008-6, Bioworld), 0.05% Tween-20 (Sigma Aldrich) TBS-C buffer. We assessed binding via incubation with 100 μL/well of serial dilutions of recombinant RELN protein (Ser1221-Gln2666, 8546-MR-050, R&D) or RELN variants in TBS-C buffer for one hour at room temperature. For detection, we used goat anti-mouse RELN primary antibody (LS-C793521-100, LS-Bio, 1:2,000, 100 μL/well) as primary antibody for one h at R.T. and (1:10,000; 100 μL/well, donkey anti-goat IgG H&L, HRP, ab6885, Abcam) as secondary antibody for 30 min. at R.T. Between each of the previous steps, plates were washed four times with TBS-C buffer (200 μL/well). Plates were washed three times prior to initiating the colorimetric reaction (DY008, R&D Systems). Stop solution (50 μL/well, DY008, R&D Systems) was added upon five min. incubation and the absorbance of the samples was measured at 450 nm using the Synergy 2 microplate reader (BioTek Instruments). Processing and analysis of the data was done using Gen5 1.11 software and GraphPad Prism, respectively.
For orientation: In an ELISA, binding on a coated surface is turned into a signal by an enzyme label.

In assay [5] the target is T3, APOER2 (Homo sapiens, UniProt Q14114).
T3 construct: purchased OnGene (so in the source)
T3 sequence (Q14114 33-963): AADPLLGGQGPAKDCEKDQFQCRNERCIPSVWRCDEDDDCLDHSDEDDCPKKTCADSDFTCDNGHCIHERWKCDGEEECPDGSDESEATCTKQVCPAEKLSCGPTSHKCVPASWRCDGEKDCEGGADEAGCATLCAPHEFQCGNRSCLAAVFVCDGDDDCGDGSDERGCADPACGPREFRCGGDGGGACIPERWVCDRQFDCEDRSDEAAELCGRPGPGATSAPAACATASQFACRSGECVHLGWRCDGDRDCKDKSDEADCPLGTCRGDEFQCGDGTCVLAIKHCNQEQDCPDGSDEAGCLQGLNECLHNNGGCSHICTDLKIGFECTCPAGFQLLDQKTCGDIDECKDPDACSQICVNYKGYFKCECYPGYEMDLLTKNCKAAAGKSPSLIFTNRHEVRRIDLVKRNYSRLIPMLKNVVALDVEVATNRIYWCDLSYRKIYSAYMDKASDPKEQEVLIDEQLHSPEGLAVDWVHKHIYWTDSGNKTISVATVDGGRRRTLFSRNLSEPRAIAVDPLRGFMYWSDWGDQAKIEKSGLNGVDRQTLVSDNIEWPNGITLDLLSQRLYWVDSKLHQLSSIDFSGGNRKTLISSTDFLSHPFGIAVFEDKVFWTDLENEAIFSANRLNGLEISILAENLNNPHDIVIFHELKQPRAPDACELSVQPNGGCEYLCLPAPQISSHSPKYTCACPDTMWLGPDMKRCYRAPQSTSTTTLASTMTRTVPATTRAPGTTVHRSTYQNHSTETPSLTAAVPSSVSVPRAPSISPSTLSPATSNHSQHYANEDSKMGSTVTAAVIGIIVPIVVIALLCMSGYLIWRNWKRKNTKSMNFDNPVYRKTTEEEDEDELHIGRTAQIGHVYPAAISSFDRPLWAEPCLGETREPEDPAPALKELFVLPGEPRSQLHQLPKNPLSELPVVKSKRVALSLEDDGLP
Briefly: ELISA cell-free binding of RELN variants to ApoEr2. The procedure:
as §1

Assay [6] in a line: Heparin-sepharose affinity column chromatography, NaCl step gradient. In kind it is binding. The procedure: We tested changes in binding to heparin of RELN variants chromatographically using an optimized version of a protocol previously published by our laboratory (1). Briefly, after equilibration of the heparin column (BioVision 6554-1) at R.T., columns were washed with five volumes of degassed 20 mM TRIS-HCl buffer (pH 7.5). Recombinant C-terminus RELN peptides were produced and purified by Innovagen (Sweden): (WT) […](SEQ ID NO:56), and (H3447R) […](SEQ ID NO:53). One mL of 50 μg/mL peptide (H3447 or WT, and H3447R) was recycled through the column five times and the last flow through collected for further analysis. The column was washed five times with the same buffer and the protein eluted using a 0.05 M step gradient of NaCl in 20 mM Tris-HCl (0-1M, one mL per fraction). To ensure the complete release of the protein, the column was washed with five M NaCl 20 mM Tris-HCl. Three independent experiments were conducted for C-terminus RELN WT and H3447R. All eluted fractions were analyzed spectroscopically by reading the absorbance at 280 nm using Nanodrop 2000 Spectrophotometer. Blank corrected fractions were subsequently analyzed using GraphPad Prism 8.
To assess Reelin-heparin binding affinity, Reelin variants were run on a heparin column with steps of 0.05M in a range of 0.05-1M NaCl over 20 1 mL column volumes in 20 mM Tris HCl, as described in Arboleda et. al 2019 (2). Sample fractions were eluted at an increasing NaCl step size to determine the ionic strength needed to disrupt the binding between Reelin and heparin. Therefore, the stronger the interaction, the higher concentration of salt would be needed to disrupt the bond.

Assay [7] in a line: Isothermal titration calorimetry (ITC) of CTR-RELN with heparin. Type of assay: binding. As to conditions: titrated with 5 μM heparin, vs WT. (Isothermal titration calorimetry measures the heat released or taken up as one component is titrated into another.)

T1 sequence (P05067 672-713 limits assumed): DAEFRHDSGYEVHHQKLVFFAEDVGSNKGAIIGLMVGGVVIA

“IL2signalpeptide-6XHistag(SEQ ID NO: 62)-hReelin(AALeu1220-Ile2660) C-term-REELIN H3447R [225SU]”: the “pDAB1 / Dab1 signaling activation” value in assay [1] was “efficacy”.
For the substance RKQNYMMNFSRQHGLRHFYNRRRR [WT short], the “GFP expression from mRNA cargo” value in assay [2] was “increase in expression”.
“RKQNYMMNFSRQHGLRHFYNRRRRSLRRYP [CTR-RELN WT]”: the results for the “Aβ aggregation (ThT fluorescence)” value in assay [3] (listed as Cterm domain of RELN) and in assay [3] (listed as RELN CTR) were “reduced amyloid aggregation” and “decreased amyloid aggregation; also recorded: significantly reduced amyloid aggregation; also recorded: reduces Aβ aggregation”, respectively. In addition, the “binding to VLDLr” value in assay [4] is given as “unable to bind directly”. Also, the “binding to APOER2” value in assay [5] was “unable to bind directly”. Further, the “NaCl concentration of peak eluted fraction from heparin column” value in assay [6] (0.05 M NaCl step gradient in 20 mM Tris HCl, UV 280 nm) worked out at 0.55 M NaCl. In addition, in assay [6] (affinity chromatography, NaCl gradient), the “binding to and release from heparin column” value was “bound to heparin”.
Regarding RKQNYMMNFSRQHGLRRFYNRRRR [H3447R short], in assay [7], the “thermodynamics of heparin interaction” value was “more negative Gibbs free energy”.
